Reference: patent US20230227437A1, “IMMUNOMODULATOR” (priority 2020, published 2023)

Legend:
human IL-17A (hIL-17A) = target: T1, human IL-17A (hIL-17A) (Homo sapiens, UniProt Q16552); assay: IL-17A enzyme-linked immunosorbent assay (competitive ELISA, receptor-ligand binding)
T1 construct: purchased Sino Biological Inc. 12047-H07B
T1 sequence (Q16552 24-155): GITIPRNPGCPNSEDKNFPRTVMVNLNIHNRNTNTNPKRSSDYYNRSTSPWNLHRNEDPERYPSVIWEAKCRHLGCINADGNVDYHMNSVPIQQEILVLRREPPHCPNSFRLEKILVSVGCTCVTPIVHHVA
Experimental: The inhibition of receptor-ligand binding by human IL-17A (hIL-17A) inhibitors was detected by competitive ELISA. A 96-well plate was inoculated 0.2 μg/ml IL-17 (Sino Biological Inc. Cat #12047-H07B) for incubation at 37° C. for 30 min, 100 μL for per well. The 96-well plate was washed four times with phosphate buffered saline (PBS) containing Tween-20 (PBST, 0.05% Tween-20), 200 μL for per well each time. 200 μL of 5% skim milk were added into the 96-well plate for incubation on a shaker at 25° C. for 30 min. The 96-well plate was washed four times with PBST (0.05% Tween-20), and added with 89 μL of PBST and 1 μL of a compound to be measured (100×), in which a concentration the compound to be measured (100×) was 0.003 μM-30 μM. The mixture was mixed evenly and incubated at 25° C. for 10 min. The mixture was added with 10 μL of 16 nM IL-17R, followed by incubation at 25° C. for 30 min. After washing the 96-well plate 4 times, 100 μL of anti-Fc tag horseradish peroxidase (HRP) coupled antibody were added for incubation on a shaker at 25° C. for 30 min. After washing the 96-well plate 4 times, 100 μL of 3,3′,5,5′-tetramethylbenzidine (TMB) substrate solution were added to the 96-well plate for incubation away from light at 25° C. After addition of 20% HCl, an absorbance was measure by a microplate reader at 450 nm.
The compounds prepared according to the above method were assayed for human IL-17A inhibitory activity.

hIL-17A = target: T2, hIL-17A (Homo sapiens, UniProt Q16552); assay: Inhibition of hIL-17A-induced chemokine GROα/CXCL1 production in HT-29 cell; assay type: cell-based
T2 construct: purchased R&D 317-ILB
T2 sequence (Q16552 20-155 limits assumed): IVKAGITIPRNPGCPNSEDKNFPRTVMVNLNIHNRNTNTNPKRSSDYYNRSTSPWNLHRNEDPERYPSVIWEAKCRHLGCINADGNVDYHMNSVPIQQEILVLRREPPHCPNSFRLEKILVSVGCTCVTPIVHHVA
Experimental: Human colorectal adenocarcinoma cell HT-29 was inoculated to a 96-well plate (5×10^4 for per well), and incubated at 37° C. on an incubator overnight. A mixture of 30 ng/mL hIL-17A protein (R&D, #317-ILB) with gradient concentrations of IL-17A small molecule inhibitors or with 0.3 μg/mL positive control IL-17A antibody (R&D, #AF-317-NA) was incubated for 1 h at 37° C., and added into the 96-well plate to incubated with HT-29 at 37° C. for 48 h. A level of GROα in a cell culture supernatant was then detected using an ELISA kit for GROα (Cisbio, #62HCXC1peg).
Inhibitory effect of the compound prepared in Examples on hIL-17A-induced chemokine GROα/CXCL1 production in HT-29 cell was tested according to the methods of Experimental Examples 1 and 2. […] “-” indicated not tested. According to the results, the compounds provided herein have good human IL-17A inhibitory activity and can be effectively used in the treatment of diseases associated with abnormal hIL-17A activity.

SMILES	IC50 (human IL-17A (hIL-17A))	IC50 (hIL-17A)
Cc1n[nH]c(C)c1-c1ccc(NC(=O)[C@@H](NC(=O)c2ccnn2C)C2c3ccccc3CC23CC3)cc1 (some centres unmarked) [Compound 1]	0.018 µM	0.404 µM
Cc1n[nH]c(C)c1-c1ccc(NC(=O)[C@@H](NC(=O)c2ccnn2C)C2c3cc(F)ccc3CC23CC3)cc1 (some centres unmarked) [Compound 2]	0.041 µM	0.196 µM
Cc1n[nH]c(C)c1-c1ccc(NC(=O)[C@@H](NC(=O)c2ccnn2C)C2c3ccccc3OCC23CC3)cc1 (some centres unmarked) [Compound 3]	0.04 µM	0.213 µM
Cc1n[nH]c(C)c1-c1ccc(NC(=O)[C@@H](NC(=O)c2ccnn2C)C2c3cc(F)ccc3OCC23CC3)cc1 (some centres unmarked) [Compound 4]	0.05 µM	0.05 µM
Cn1nccc1C(=O)N[C@H](C(=O)Nc1ccc(N2CCOCC2)nc1)C1c2ccccc2CC12CC2 (some centres unmarked) [Compound 10]	0.098 µM	
Cc1n[nH]c(C)c1-c1ccc(NC(=O)[C@@H](NC(=O)c2ccnn2C)C2c3c(F)cccc3CC23CC3)cc1 (some centres unmarked) [Compound 13]	0.031 µM	0.391 µM
Cc1nonc1C(=O)N[C@H](C(=O)Nc1ccc(-c2c(C)n[nH]c2C)cc1)C1c2c(F)cccc2CC12CC2 (some centres unmarked) [Compound 14]	0.059 µM	0.206 µM
Cc1nonc1C(=O)N[C@H](C(=O)Nc1ccc(-c2c(C)n[nH]c2C)cc1)C1c2ccc(F)cc2CC12CC2 (some centres unmarked) [Compound 15]	0.048 µM	0.071 µM
Cc1n[nH]c(C)c1-c1ccc(NC(=O)[C@@H](NC(=O)c2ccnn2C)C2c3ccc(F)cc3CC23CC3)cc1 (some centres unmarked) [Compound 16]	0.043 µM	0.055 µM
Cc1n[nH]c(C)c1-c1ccc(NC(=O)[C@@H](NC(=O)c2ccnn2C)C2c3ccc(F)cc3OCC23CC3)cc1 (some centres unmarked) [Compound 17]	0.036 µM	0.068 µM
Cc1nonc1C(=O)N[C@H](C(=O)Nc1ccc(-c2c(C)n[nH]c2C)nc1)C1c2cc(F)ccc2OCC12CC2 (some centres unmarked) [Compound 19]	0.19 µM	2.05 µM
Cc1n[nH]c(C)c1-c1ccc(NC(=O)[C@@H](NC(=O)c2ccnn2C(C)C)C2c3cc(F)ccc3OCC23CC3)cn1 (some centres unmarked) [Compound 20]	0.061 µM	0.878 µM
CCn1nccc1C(=O)N[C@H](C(=O)Nc1ccc(-c2c(C)n[nH]c2C)nc1)C1c2cc(F)ccc2OCC12CC2 (some centres unmarked) [Compound 21]	0.066 µM	0.506 µM
Cc1n[nH]c(C)c1-c1ccc(NC(=O)[C@@H](NC(=O)c2ccnn2C)C2c3cc(F)ccc3OCC23CC3)cn1 (some centres unmarked) [Compound 22]	0.085 µM	1.02 µM
CCc1nonc1C(=O)N[C@H](C(=O)Nc1ccc(-c2c(C)n[nH]c2C)nc1)C1c2cc(F)ccc2OCC12CC2 (some centres unmarked) [Compound 23]	0.098 µM	1.05 µM
CCc1nonc1C(=O)N[C@H](C(=O)Nc1ccc(-c2c(C)n[nH]c2C)cc1)C1c2cc(F)ccc2OCC12CC2 (some centres unmarked) [Compound 25]	0.056 µM	0.194 µM
Cc1nonc1C(=O)N[C@H](C(=O)Nc1ccc(-c2c(C)n[nH]c2C)nc1)C1c2ccc(F)cc2OCC12CC2 (some centres unmarked) [Compound 27]	0.119 µM	0.672 µM
Cc1n[nH]c(C)c1-c1ccc(NC(=O)[C@@H](NC(=O)c2nonc2C(C)C)C2c3ccc(F)cc3OCC23CC3)cc1 (some centres unmarked) [Compound 28]	0.11 µM	0.083 µM
Cc1nonc1C(=O)N[C@H](C(=O)Nc1cnc(-c2c(C)n[nH]c2C)c(F)c1)C1c2ccc(F)cc2CC12CC2 (some centres unmarked) [Compound 29]	0.152 µM	0.378 µM
Cc1n[nH]c(C)c1-c1ncc(NC(=O)[C@@H](NC(=O)c2ccnn2C)C2c3ccc(F)cc3CC23CC3)cc1F (some centres unmarked) [Compound 30]	0.065 µM	0.229 µM
Cc1n[nH]c(C)c1-c1ccc(NC(=O)[C@@H](NC(=O)c2ccnn2C)C2c3ccc(F)cc3CC23CC3)cn1 (some centres unmarked) [Compound 31]	0.072 µM	0.872 µM

SMILES	IC50 (human IL-17A (hIL-17A))	IC50 (hIL-17A)
Cc1nonc1C(=O)N[C@H](C(=O)Nc1ccc(-c2c(C)n[nH]c2C)nc1)C1c2ccc(F)cc2CC12CC2 (some centres unmarked) [Compound 32]	0.075 µM	0.351 µM
Cc1n[nH]c(C)c1-c1ccc(NC(=O)[C@@H](NC(=O)c2nocc2C(C)C)C2c3ccc(F)cc3OCC23CC3)cn1 (some centres unmarked) [Compound 33]	0.219 µM	0.092 µM
CCc1nocc1C(=O)N[C@H](C(=O)Nc1ccc(-c2c(C)n[nH]c2C)nc1)C1c2ccc(F)cc2OCC12CC2 (some centres unmarked) [Compound 34]	0.12 µM	0.063 µM
Cc1n[nH]c(C)c1-c1ccc(NC(=O)[C@@H](NC(=O)c2nocc2C(C)C)C2c3ccc(F)cc3OCC23CC3)cc1 (some centres unmarked) [Compound 35]	0.311 µM	0.085 µM
CCc1nocc1C(=O)N[C@H](C(=O)Nc1ccc(-c2c(C)n[nH]c2C)cc1)C1c2ccc(F)cc2OCC12CC2 (some centres unmarked) [Compound 36]	0.144 µM	0.058 µM
CCc1nonc1C(=O)N[C@H](C(=O)Nc1ccc(-c2c(C)n[nH]c2C)c(F)c1)C1c2ccc(F)cc2OCC12CC2 (some centres unmarked) [Compound 38]	0.276 µM	0.506 µM
Cc1nonc1C(=O)N[C@H](C(=O)Nc1ccc(-c2c(C)n[nH]c2C)cc1)C1c2c(F)cc(F)cc2OCC12CC2 (some centres unmarked) [Compound 52]	0.402 µM	
CCc1nonc1C(=O)N[C@H](C(=O)Nc1ccc(-c2c(C)n[nH]c2C)cc1)C1c2c(F)cc(F)cc2OCC12CC2 (some centres unmarked) [Compound 53]	0.554 µM	
Cc1n[nH]c(C)c1-c1ccc(NC(=O)[C@@H](NC(=O)c2ccnn2C(C)C)C2c3c(F)cc(F)cc3OCC23CC3)cc1 (some centres unmarked) [Compound 54]	0.136 µM	
Cc1n[nH]c(C)c1-c1ccc(NC(=O)[C@@H](NC(=O)c2c(C(C)C)no[n+]2[O-])C2c3c(F)cc(F)cc3OCC23CC3)cc1 (some centres unmarked) [Compound 61]	0.339 µM	
Cc1n[nH]c(C)c1-c1ccc(NC(=O)[C@@H](NC(=O)c2nonc2C(C)C)C2c3c(F)cc(F)cc3OCC23CC3)cn1 (some centres unmarked) [Compound 66]	7.13 µM	
Cc1n[nH]c(C)c1-c1ccc(NC(=O)[C@@H](NC(=O)c2ccnn2C(C)C)C2c3c(F)ccc(F)c3OCC23CC3)cn1 (some centres unmarked) [Compound 75]	5 µM	
CCc1nonc1C(=O)N[C@H](C(=O)Nc1ccc(-c2c(C)n[nH]c2C)cc1)C1c2c(F)ccc(F)c2OCC12CC2 (some centres unmarked) [Compound 78]	0.985 µM	
Cc1n[nH]c(C)c1-c1ccc(NC(=O)[C@@H](NC(=O)c2nonc2C(C)C)C2c3c(F)ccc(F)c3OCC23CC3)cn1 (some centres unmarked) [Compound 79]	32.5 µM	
Cc1nonc1C(=O)N[C@H](C(=O)Nc1ccc(-c2c(C)n[nH]c2C)cc1)C1c2c(F)ccc(F)c2OCC12CC2 (some centres unmarked) [Compound 81]	2.06 µM	
Cc1n[nH]c(C)c1-c1ccc(NC(=O)[C@@H](NC(=O)c2nonc2C(C)C)C2c3c(F)ccc(F)c3OCC23CC3)cc1 (some centres unmarked) [Compound 82]	2.03 µM	
Cc1n[nH]c(C)c1-c1ncc(NC(=O)[C@@H](NC(=O)c2ccnn2C(C)C)C2c3c(F)ccc(F)c3OCC23CC3)cc1F (some centres unmarked) [Compound 83]	2.02 µM	
Cc1n[nH]c(C)c1-c1ncc(NC(=O)[C@@H](NC(=O)c2nonc2C(C)C)C2c3c(F)ccc(F)c3OCC23CC3)cc1F (some centres unmarked) [Compound 84]	9.81 µM	
COCCc1nocc1C(=O)N[C@H](C(=O)Nc1cnc(-c2c(C)n[nH]c2C)c(F)c1)C1c2cc(F)c(F)cc2OCC12CC2 (some centres unmarked) [Compound 88]	0.1 µM	
Cc1n[nH]c(C)c1-c1ccc(NC(=O)[C@@H](NC(=O)c2conc2C2CC2)C2c3cc(F)c(F)cc3OCC23CC3)cc1 (some centres unmarked) [Compound 98]	0.222 µM	
COCCc1nocc1C(=O)N[C@H](C(=O)Nc1ccc(-c2c(C)n[nH]c2C)cc1)C1c2cc(F)c(F)cc2OCC12CC2 (some centres unmarked) [Compound 104]	0.116 µM	
